Test results as given in patent US6166290A, “Glutathione-S-conjugate transport in plants” (The Trustees of the University of Pennsylvania, priority 1997, dated 2000).
“And” between values parts separate entries of the source, which are not always exact repeats. Equal values may be shown once. Read-outs that look alike come from different tables or passages of the source.

Key:
[1] = molecular target: T1, YCF1 (vacuolar membrane vesicles purified from DTY165 cells) (Saccharomyces cerevisiae, UniProt P39109); experiment: biochemical; assay type: biochemical; details: read-out: Ki(DNP-GS) for inhibition of Cd.GS2 uptake
T1 construct: endogenous in cells; host or cells: S. cerevisiae DTY165 (wild type YCF1), vacuolar membrane vesicles
In short: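 Vacuolar vesicles from wild-type (DTY165) or ycf1Δ (DTY167) yeast, washed free of DTT/EGTA into glycerol/Tris-Mes pH 8.0. MgATP-energized, uncoupler-insensitive uptake of 109Cd2+, GSH or purified radiolabeled Cd·GSn complexes measured at 25°C. Medium: 3 mM ATP/MgSO4, ATP-regenerating system, 5 μM gramicidin-D, Tris-Mes pH 8.0; washes contained 100 μM CdSO4.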

[2] = test system: vacuolar GS-X pump (vacuolar membrane vesicles, V. radiata hypocotyls); experiment: GS-conjugate uptake by vacuolar membrane vesicles from etiolated hypocotyls of V. radiata; assay type: biochemical, Vigna radiata
[3] = molecular target: T1, YCF1 (vacuolar membrane vesicles purified from DTY165 cells); experiment: [3H]DNP-GS uptake by vacuolar membrane vesicles purified from DTY165 cells; assay type: biochemical
In short: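 ATP-dependent [3H]DNP-GS (66.2 μM) transport measured by filtration and scintillation counting of Ficoll-purified yeast vacuolar vesicles (DTY165 wild type; DTY167 ycf1Δ), 1–60 min at 25 °C in sorbitol/Tris-Mes pH 8.0 with 3 mM ATP, 3 mM MgSO4 and gramicidin-D. Nonenergized uptake without ATP/Mg2+.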

T1 sequence (P39109 whole entry): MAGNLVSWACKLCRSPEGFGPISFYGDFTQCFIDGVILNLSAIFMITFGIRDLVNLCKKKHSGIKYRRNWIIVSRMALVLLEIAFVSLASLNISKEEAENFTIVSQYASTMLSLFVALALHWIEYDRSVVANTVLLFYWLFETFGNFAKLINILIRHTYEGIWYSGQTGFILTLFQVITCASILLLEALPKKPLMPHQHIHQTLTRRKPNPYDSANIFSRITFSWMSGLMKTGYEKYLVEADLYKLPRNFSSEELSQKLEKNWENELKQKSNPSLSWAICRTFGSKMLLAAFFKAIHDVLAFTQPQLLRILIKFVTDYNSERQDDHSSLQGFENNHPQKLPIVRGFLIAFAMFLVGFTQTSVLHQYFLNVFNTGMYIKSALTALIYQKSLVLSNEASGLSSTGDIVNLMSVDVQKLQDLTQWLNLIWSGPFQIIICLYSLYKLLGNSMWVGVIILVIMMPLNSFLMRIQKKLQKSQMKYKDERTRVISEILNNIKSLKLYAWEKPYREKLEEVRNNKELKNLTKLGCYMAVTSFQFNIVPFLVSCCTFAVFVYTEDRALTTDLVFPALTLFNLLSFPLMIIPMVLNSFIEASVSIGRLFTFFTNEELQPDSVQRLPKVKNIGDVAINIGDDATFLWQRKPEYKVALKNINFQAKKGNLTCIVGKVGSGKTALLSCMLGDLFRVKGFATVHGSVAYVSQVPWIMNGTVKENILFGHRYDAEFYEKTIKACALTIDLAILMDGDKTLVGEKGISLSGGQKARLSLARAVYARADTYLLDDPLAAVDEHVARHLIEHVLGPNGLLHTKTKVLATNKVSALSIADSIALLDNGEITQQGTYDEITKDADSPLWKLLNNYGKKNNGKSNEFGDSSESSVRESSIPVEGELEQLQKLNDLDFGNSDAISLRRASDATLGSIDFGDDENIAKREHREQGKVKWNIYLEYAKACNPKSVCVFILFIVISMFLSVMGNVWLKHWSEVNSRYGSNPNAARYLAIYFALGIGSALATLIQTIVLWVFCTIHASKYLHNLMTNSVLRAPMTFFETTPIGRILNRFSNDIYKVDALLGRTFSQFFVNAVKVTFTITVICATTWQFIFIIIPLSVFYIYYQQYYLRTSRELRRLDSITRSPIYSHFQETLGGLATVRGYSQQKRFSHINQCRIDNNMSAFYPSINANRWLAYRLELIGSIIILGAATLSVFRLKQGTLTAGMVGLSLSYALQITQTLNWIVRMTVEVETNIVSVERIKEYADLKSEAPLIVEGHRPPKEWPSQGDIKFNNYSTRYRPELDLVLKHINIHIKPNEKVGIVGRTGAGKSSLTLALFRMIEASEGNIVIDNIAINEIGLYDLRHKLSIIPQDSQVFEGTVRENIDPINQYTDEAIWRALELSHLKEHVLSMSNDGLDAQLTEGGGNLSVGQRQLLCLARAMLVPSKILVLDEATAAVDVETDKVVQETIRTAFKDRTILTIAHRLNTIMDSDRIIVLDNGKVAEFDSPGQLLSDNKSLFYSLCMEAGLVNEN

With `N[C@@H](CCC(=O)N[C@@H](CSc1ccc([N+](=O)[O-])cc1[N+](=O)[O-])C(=O)NCC(=O)O)C(=O)O` [DNP-GS, S-(2,4-dinitrophenyl)glutathione] as the compound, how does the Ki [1] read?
The Ki was 11.3 ± 2.1 µM.

What about the IC50 ([2]; V. radiata, read-out: I50 for uptake of C3G-GS) of the same compound?
The IC50 was 104 µM.

And the IC50 ([2]; read-out: I50 for uptake of IAA-GS)?
Its IC50 is 124 µM.

And the “inhibition of MgATP-dependent [3H]medicarpin-GS uptake” value ([2]; vanadate 10 μM, DNP-GS 100 μM, gramicidin D)?
Its value is “more than 85%”.

What about the “Vmax(DNP-GS) of MgATP-dependent uncoupler-insensitive uptake” value ([3]; 3 mM MgATP, 5 μM gramicidin D) of the same compound?
The value was 51.0±16.3 nmol/mg/10 minutes and 51.0±6.3 nmol/mg/10 minutes.

What about the “initial rate of DNP-GS uptake” value ([3]; 3 mM MgATP, 66.2 μM DNP-GS) of the same compound?
The value was 12.2 nmol/mg/min.

And the “DNP-GS uptake, control” value ([3]; Table 1: 66.2 μM DNP-GS, 3 mM MgATP, no addition)?
The value was 77.7 ± 1.0 nmol/mg/10 minutes.

What about the “MgATP-dependent, uncoupler-insensitive DNP-GS uptake, control” value ([3]; Table 2: 5 μM gramicidin D, no compound) of the same compound?
Its value is 47.9 ± 2.5 nmol/mg/10 minutes.

And the “MgATP-dependent, uncoupler-insensitive DNP-GS uptake, vacuolar membrane” value ([3]; Table 4, vacuolar membrane vesicles from DTY165 cells)?
The value was 69.9 ± 1.0 nmol/mg/10 min.

And the “MgATP-dependent, uncoupler-insensitive DNP-GS uptake, crude microsomes” value ([3]; crude microsomes from DTY165 cells)?
The value was 2.5 ± 0.3 nmol/mg/10 min.
